Our source for the Ki values is BindingDB's records for doi:10.1021/jm050520a (Schering-Plough Research Institute, 2006).

The target in the assay is Genome polyprotein (Hepatitis C virus genotype 1a (isolate H77), UniProt P27958). Kind of assay: Continuous Spectrophotometric Assay. To be noted: pH 6.5; 30 °C. The method, then:
Proteolytic cleavage of the ester linkage between the Nva (L-norvaline) and the chromophore (PAP) was monitored for change in absorbance at 370 nm. Initial velocities were determined using linear regression and kinetic constants were obtained by fitting the data to the Michaelis-Menten equation.

Numbered stars: 1 amine (or outer) side, 2 acyl side, 3 side chain; on linkers, the order of the positions; unused ones are H or OH. Square brackets hold non-standard residues; d marks the D form. Peptide text beside a SMILES is read from it. * marks the point of attachment. X1 = CCCC(N[*:1])C(=O)C(=O)[*:2]; Tic = O=C(O)[C@@H]1Cc2ccccc2CN1; Chg = N[C@H](C(=O)O)C1CCCCC1; Phg = N[C@H](C(=O)O)c1ccccc1; Boc = CC(C)(C)OC(=O)*

Genome polyprotein, sequence (P27958 1027-1657 limits assumed): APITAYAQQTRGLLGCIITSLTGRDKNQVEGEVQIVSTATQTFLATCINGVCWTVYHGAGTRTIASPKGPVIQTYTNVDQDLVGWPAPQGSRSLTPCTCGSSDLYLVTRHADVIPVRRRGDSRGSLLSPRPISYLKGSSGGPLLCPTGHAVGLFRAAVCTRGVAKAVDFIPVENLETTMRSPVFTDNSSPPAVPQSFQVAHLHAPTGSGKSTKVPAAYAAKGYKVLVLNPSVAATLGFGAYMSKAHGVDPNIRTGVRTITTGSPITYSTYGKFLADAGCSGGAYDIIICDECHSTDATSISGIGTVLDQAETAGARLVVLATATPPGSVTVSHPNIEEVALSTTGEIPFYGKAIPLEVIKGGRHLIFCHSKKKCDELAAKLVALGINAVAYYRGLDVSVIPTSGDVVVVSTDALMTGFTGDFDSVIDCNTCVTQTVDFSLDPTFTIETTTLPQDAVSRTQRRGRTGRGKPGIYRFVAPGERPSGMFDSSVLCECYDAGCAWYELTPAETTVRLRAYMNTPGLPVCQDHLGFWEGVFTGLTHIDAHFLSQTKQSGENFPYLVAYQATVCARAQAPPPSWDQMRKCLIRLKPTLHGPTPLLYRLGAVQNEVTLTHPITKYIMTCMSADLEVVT

`CCCC(NC(=O)[C@@H]1Cc2ccccc2CN1C(=O)[C@@H](NC(=O)OC(C)(C)C)C1CCCCC1)C(=O)C(=O)NCC(=O)N[C@H](C(=O)N(C)C)c1ccccc1` (stereo partly drawn) [tert-butyl N-[(1S)-1-cyclohexyl-2-[(3S)-3-({1-[({[(S)-(dimethylcarbamoyl)(phenyl)methyl]carbamoyl}methyl)carbamoyl]-1-oxopentan-2-yl}carbamoyl)-1,2,3,4-tetrahydroisoquinolin-2-yl]-2-oxoethyl]carbamate] (Boc-[Chg][Tic][X1]G[Phg]-NMe2) showed a Ki of 1200 nM.

By Ki is commonly meant the equilibrium dissociation constant of an inhibitor or competing ligand from its target.
